Measurements taken from patent publication US20020016443A1, “Antiproliferative factor” (priority 1996, published 2002).

Tested on: APF activity on primary normal bladder epithelial cells
Assay: Blocking of APF antiproliferative activity by recombinant growth factors (^3H-thymidine incorporation)
Assay type: cell-based, human
Details: co-incubation with low molecular weight IC urine fractions; HB-EGF 10, 30 and 100 ng/ml; EGF, IGF1 up to about 12 and 25 fold normal levels
Description: ^3H-Thymidine Incorporation. Primary normal adult human bladder epithelial cells (HBE) were grown from biopsies obtained at autopsy from patients who had no history of bladder disorder. HBE cells were plated at a density of 1×10^4 cells/well onto 96 well tissue culture plates and incubated at 37° C. overnight (resulting in approximately 60% confluence the following day). The medium was then changed to MEM containing only 1% glutamine and 1% antibiotic/ antimycotic solution, and the cells were incubated at 37° C. overnight. […] Cells were then trypsinized, and insoluble cell contents harvested and methanol-fixed onto glass fiber filter paper, as previously described^62; the amount of radioactivity incorporated was determined as counts per minute using a Beckman LS 3801 scintillation counter. […]
To determine whether the antiproliferative effect of the APF on bladder epithelial cells might be due to a decrease in HB-EGF production, primary normal bladder epithelial cells were simultaneously incubated with varying levels of recombinant HB-EGF, EGF, or IGF1 and low molecular weight urine fractions from IC patients. […] This effect was evident using a concentration of HB-EGF (10 ng/ml) in the range previously determined for normal controls (2-22 ng/ml, mean 6.33 ng/ml) 12 as well as higher concentrations (30 and 100 ng/ml). […]

Row | Substance | inhibition of IC urine antiproliferative activity by recombinant growth factor
1 | insulin-like growth factor 1 [IGF1] | insufficient to completely inhibit APF activity
2 | epidermal growth factor [EGF] | insufficient to completely inhibit APF activity
